How the values were obtained:
Carbonic anhydrase 1 = Carbonic anhydrase 1 (Homo sapiens, UniProt P00915); assay: Inhibition of recombinant human CA1 expressed in Escherichia coli BL21 preincubated for 15 mins by phenol red dye-based stopped-flow CO2 hydration assay
Carbonic anhydrase 9 = Carbonic anhydrase 9 (Homo sapiens, UniProt Q16790); assay: Inhibition of recombinant human CA9 expressed in Escherichia coli BL21 preincubated for 15 mins by phenol red dye-based stopped-flow CO2 hydration assay

Chain of Carbonic anhydrase 1 (P00915 whole entry): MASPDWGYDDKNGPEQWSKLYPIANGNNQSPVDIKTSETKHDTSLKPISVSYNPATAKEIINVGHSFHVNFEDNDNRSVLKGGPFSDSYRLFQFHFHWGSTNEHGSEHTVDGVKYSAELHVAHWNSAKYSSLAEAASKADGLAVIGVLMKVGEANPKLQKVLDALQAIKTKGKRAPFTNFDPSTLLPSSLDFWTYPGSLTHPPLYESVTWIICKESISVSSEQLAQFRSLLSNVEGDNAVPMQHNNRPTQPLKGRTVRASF

Compound | Ki (Carbonic anhydrase 1) | Ki (Carbonic anhydrase 9)
CCCC(=O)Nc1nnc(S(N)(=O)=O)s1 | 53.8 nM | 2.1 nM
CC(C)C(=O)Nc1nnc(S(N)(=O)=O)s1 | 75.1 nM | 2.4 nM
CC(C)(C)C(=O)Nc1nnc(S(N)(=O)=O)s1 | 63.4 nM | 8.2 nM
NS(=O)(=O)c1nnc(NC(=O)C2CCCCC2)s1 | 62.8 nM | 15.7 nM
CCC(=O)Nc1nnc(S(N)(=O)=O)s1 [PROPAZOLAMIDE] | – | 12.8 nM

From ChEMBL document CHEMBL4665885, “Structural Basis of Nanomolar Inhibition of Tumor-Associated Carbonic Anhydrase IX: X-Ray Crystallographic and Inhibition Study of Lipophilic Inhibitors with Acetazolamide Backbone” (J Med Chem, 2020)
